Experimental data reported in patent publication US11618747B2, “LXR modulators with bicyclic core moiety” (OrsoBio, Inc., priority 2018, dated 2023).

How the values were obtained:
[1] = target: T1, LXRβ ligand-binding domain (Homo sapiens, UniProt P55055, DUP175-175); assay: TR-FRETβ activity assay (NCoA3 coactivator peptide recruitment); assay type: biochemical; conditions: TR-FRET, 1 μM 24(S)-25-epoxycholesterol prestimulation; read-out: FRETβ (EC50 range)
T1 construct: amino acids 156-461; NP009052; made in house; host or cells: E. coli
T1 sequence (P55055 with tags, fused parts or gaps DUP175-175 limits assumed): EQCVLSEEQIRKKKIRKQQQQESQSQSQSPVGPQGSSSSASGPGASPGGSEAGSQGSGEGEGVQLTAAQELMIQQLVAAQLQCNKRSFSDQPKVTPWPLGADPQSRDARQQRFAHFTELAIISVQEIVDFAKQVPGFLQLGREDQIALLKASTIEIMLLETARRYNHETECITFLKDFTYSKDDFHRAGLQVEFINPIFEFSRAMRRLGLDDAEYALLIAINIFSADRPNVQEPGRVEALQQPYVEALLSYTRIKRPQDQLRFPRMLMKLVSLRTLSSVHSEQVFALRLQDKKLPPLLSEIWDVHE
Method: (§1) The tested compounds were usually dissolved, tested and stored as 20 mM stock solutions in DMSO. Since sulfonyl acetic acid derivatives tend to decarboxylate under these conditions, these stock solutions were prepared, tested and stored as 20 mM DMSO stock solutions containing 100 mM trifluoroacetic Acid (5 equivalents). Sulfonyl acetic acid derivatives are shelf stable as solid at rt for long time as reported by Griesbrecht et al. (Synlett 2010:374) or Faucher et al. (J. Med. Chem. 2004; 47:18).
Recombinant GST-LXRPβ ligand-binding domain (LBD; amino acids 156-461; NP009052; SEQ ID NO:4) was expressed in E. coli and purified via gluthatione-sepharose affinity chromatography. N-terminally biotinylated NCoA3 coactivator peptide (SEQ ID NO:7) was chemically synthesized (Eurogentec). Assays were done in 384 well format (final assay volume of 25 μL/well) in a Tris/HCl buffer (pH 6.8) containing KCl, bovine serum albumin, Triton-X-100 and 1 μM 24(S)-25-epoxycholesterol as LXR-prestimulating agonist. Assay buffer was provided and test articles (potential LXR inverse agonists) were titrated to yield final assay concentrations of 50 μM, 16.7 μM, 5.6 μM, 1.9 μM, 0.6 μM, 0.2 μM, 0.07 μM, 0.02 μM, 0.007 μM, 0.002 μM with one vehicle control. Finally, a detection mix was added containing anti GST-Tb cryptate (CisBio; 610SAXLB) and Streptavidin-XL665 (CisBio; 610SAXLB) as fluorescent donor and acceptor, respectively, as well as the coactivator peptide and LXRβ-LBD protein (SEQ ID NO:4). The reaction was mixed thoroughly, equilibrated for 1 h at 4° C. and vicinity of LXRβ and coactivator peptide was detected by measurement of fluorescence in a VictorX4 multiplate reader (PerkinElmer Life Science) using 340 nm as excitation and 615 and 665 nm as emission wavelengths. Assays were performed in triplicates.
Final Assay Concentrations of Components:
240 mM KCl, 1 μg/μL BSA, 0.002% Triton-X-100, […] anti GST-Tb cryptate, 2.5 ng/μL Streptavidin-XL665, coactivator peptide (400 nM), LXRβ protein (530 μg/mL, i.e. 76 nM).

[2] = target: T2, full length (FL) LXRβ (Homo sapiens, UniProt P55055, DUP175-175); assay: LXR Gal4 reporter transient transfection assay (FL-M2H Gal4β); assay type: cell-based; conditions: HEK293 cells, full length LXRβ; read-out: FL-M2H Gal4β (EC50 range)
T2 construct: the full length (FL) proteins of LXRα (amino acids 1-447); NP005684; NP009052; expressed in transfected cells; host or cells: HEK293
T2 sequence (P55055 with tags, fused parts or gaps DUP175-175): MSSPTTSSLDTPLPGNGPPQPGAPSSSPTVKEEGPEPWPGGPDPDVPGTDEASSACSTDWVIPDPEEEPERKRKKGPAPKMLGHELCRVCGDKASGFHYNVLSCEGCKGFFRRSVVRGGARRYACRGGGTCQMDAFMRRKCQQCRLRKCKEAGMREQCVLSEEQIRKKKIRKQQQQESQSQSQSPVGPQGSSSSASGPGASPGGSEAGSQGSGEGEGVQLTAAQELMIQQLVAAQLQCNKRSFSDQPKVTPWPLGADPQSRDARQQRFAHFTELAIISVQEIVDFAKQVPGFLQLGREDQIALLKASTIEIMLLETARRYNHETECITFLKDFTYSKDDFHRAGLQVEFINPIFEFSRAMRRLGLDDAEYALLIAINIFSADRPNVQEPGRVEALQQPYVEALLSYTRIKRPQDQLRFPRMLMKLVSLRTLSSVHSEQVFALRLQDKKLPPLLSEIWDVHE
Method: as §1
(§2) LXR Gal4 Reporter Transient Transfection Assays
(§3) LXRα and LXRβ activity status was determined via detection of interaction with coactivator and corepressor proteins in mammalian two-hybrid experiments (M2H). For this, via transient transfection the full length (FL) proteins of LXRα (amino acids 1-447; NP005684; SEQ ID NO:1) or LXRβ-(amino acids 1-461; NP009052; SEQ ID NO:2) or the ligand-binding domains (LBD) of LXRα (amino acids 155-447 SEQ ID NO:3) or LXRβ (amino acids 156-461; SEQ ID NO:4) were expressed from pCMV-AD (Stratagene) as fusions to the transcriptional activation domain of NFkB. As cofactors, domains of either the steroid receptor coactivator 1 (SRC1; amino acids 552-887; SEQ ID NO:5) or of the corepressor NCoR (amino acids 1906-2312; NP006302; SEQ ID NO:6) were expressed as fusions to the DNA binding domain of the yeast transcription factor GAL4 (from pCMV-BD; Stratagene). Interaction was monitored via activation of a coexpressed Firefly Luciferase Reporter gene under control of a promoter containing repetitive GAL4 response elements (vector pFRLuc; Stratagene). Transfection efficiency was controlled via cotransfection of constitutively active pRL-CMV Renila reniformis luciferase reporter (Promega). HEK293 cells were grown in minimum essential medium (MEM) with 2 mM L-glutamine and Earle's balanced salt solution supplemented with 8.3% fetal bovine serum, 0.1 mM non-essential amino acids, 1 mM sodium pyruvate, at 37° C. in 5% CO2. 3.5×10^4 cells/well were plated in 96-well cell culture plates in growth medium supplemented with 8.3% fetal bovine serum for 16-20 h to ˜90% confluency. For transfection, medium was taken off and LXR and cofactor expressing plasmids as well as the reporter plasmids are added in 30 μL OPTIMEM/well including polyethylene-imine (PEI) as vehicle. Typical amounts of plasmids transfected/well: pCMV-AD-LXR (5 ng), pCMV-BD-cofactor (5 ng), pFR-Luc (100 ng), pRL-CMV (0.5 ng). Compound stocks were prepared in DMSO, prediluted in MEM to a total volume of 120 μL, and added 4 h after addition of the transfection mixture (final vehicle concentration not exceeding 0.2%). Cells were incubated for additional 16 h, lysed for 10 min in 1× Passive Lysis Buffer (Promega) and Firefly and Renilla luciferase activities were measured sequentially in the same cell extract using buffers containing D-luciferine and coelenterazine, respectively. Measurements of luminescence were done in a BMG-luminometer.

[3] = target: T3, full length (FL) LXRα (Homo sapiens, UniProt Q13133); assay: LXR Gal4 reporter transient transfection assay (FL-M2H Gal4α); assay type: cell-based; conditions: HEK293 cells, full length LXRα; read-out: FL-M2H Gal4α (EC50 range)
T3 construct: the full length (FL) proteins of LXRα (amino acids 1-447); NP005684; expressed in transfected cells; host or cells: HEK293
T3 sequence (Q13133 1-447): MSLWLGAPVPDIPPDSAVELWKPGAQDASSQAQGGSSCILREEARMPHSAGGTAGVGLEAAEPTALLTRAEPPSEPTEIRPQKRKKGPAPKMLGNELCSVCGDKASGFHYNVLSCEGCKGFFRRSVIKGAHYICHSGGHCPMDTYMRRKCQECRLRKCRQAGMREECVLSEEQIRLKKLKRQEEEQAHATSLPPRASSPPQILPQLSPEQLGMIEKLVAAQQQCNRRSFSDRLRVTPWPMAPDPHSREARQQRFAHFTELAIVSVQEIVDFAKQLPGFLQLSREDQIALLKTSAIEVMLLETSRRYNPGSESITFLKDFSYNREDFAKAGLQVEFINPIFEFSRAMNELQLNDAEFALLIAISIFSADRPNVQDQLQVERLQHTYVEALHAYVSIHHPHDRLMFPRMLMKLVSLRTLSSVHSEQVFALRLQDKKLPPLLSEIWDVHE
Method: as §1, §2, §3

Compound | EC50 [1] | EC50 [2] | EC50 [3]
COCc1sccc1-c1c(-c2cccc(N3CC(C(=O)O)C3)c2)n(S(=O)(=O)c2ccc(C)cc2)c2ccc(F)cc12 [3/6] | 1000 to 10000 nM | 100 to 1000 nM | 100 to 1000 nM
CCc1ccc(S(=O)(=O)n2c(-c3cccc(N4CC(C(=O)O)C4)c3)c(-c3ccsc3C#N)c3cc(F)ccc32)cc1 [3/10] | 100 to 1000 nM | < 100 nM | 100 to 1000 nM
N#Cc1sccc1-c1c(-c2cccc(N3CC(C(=O)O)C3)c2)n(S(=O)(=O)c2ccc3c(c2)CCC3)c2ccc(F)cc12 [3/12] | 100 to 1000 nM | < 100 nM | < 100 nM
N#Cc1sccc1-c1c(-c2cccc(N3CC(C(=O)O)C3)c2)n(S(=O)(=O)c2ccc3ccccc3c2)c2ccc(F)cc12 [3/13] | 1000 to 10000 nM | < 100 nM | < 100 nM
Cc1ccc(S(=O)(=O)n2c(-c3cccc(N4CC(C(=O)O)C4)c3)c(-c3ccsc3C#N)c3cc(F)ccc32)c(F)c1 [3/14] | 1000 to 10000 nM | 100 to 1000 nM | 100 to 1000 nM
CC1CCN(S(=O)(=O)n2c(-c3cccc(-c4ccc(C(=O)O)cc4Cl)c3)c(-c3ccsc3C#N)c3cc(F)ccc32)CC1 [3/21] | 100 to 1000 nM | < 100 nM | < 100 nM
[2H]c1c([2H])c(S(=O)(=O)n2c(-c3cccc(-c4ccc(C(=O)O)cc4Cl)c3)c(-c3ccsc3C#N)c3cc(F)ccc32)c([2H])c([2H])c1C([2H])([2H])[2H] [3/22] | < 100 nM | < 100 nM | < 100 nM
Cc1cc(S(=O)(=O)n2c(-c3cccc(-c4ccc(C(=O)O)cc4Cl)c3)c(-c3ccsc3C#N)c3cc(F)ccc32)ccc1F [3/23] | 100 to 1000 nM | < 100 nM | < 100 nM
Cc1ccc(S(=O)(=O)n2c(-c3cccc(N4CC(C(=O)O)C4)c3)c(-c3sccc3C#N)c3cc(F)ccc32)cc1 [3/25] | 1000 to 10000 nM | < 100 nM | 100 to 1000 nM
Cc1ccc(S(=O)(=O)n2c(-c3cccc(N4CC(C(=O)O)C4)c3)c(-c3ccoc3C#N)c3cc(F)ccc32)cc1 [3/26] | 1000 to 10000 nM | < 100 nM | 100 to 1000 nM
Cc1ccc(S(=O)(=O)n2c(-c3cccc(N4CC(C(=O)O)C4)c3)c(-c3ccsc3CCO)c3cc(F)ccc32)cc1 [3/27] | 1000 to 10000 nM | 100 to 1000 nM | 100 to 1000 nM
Cc1ccc(S(=O)(=O)n2c(-c3cccc(N4CC(C(=O)O)C4)c3)c(-c3ccsc3C(F)(F)F)c3cc(F)ccc32)cc1 [3/30] | 100 to 1000 nM | < 100 nM | < 100 nM
Cc1ccc(S(=O)(=O)n2c(-c3cccc(N4CC(C(=O)O)C4)c3)c(-c3ccccc3C3COC3)c3cc(F)ccc32)cc1 [3/31] | 100 to 1000 nM | 100 to 1000 nM | 100 to 1000 nM
COc1ccc(S(=O)(=O)n2c(-c3cccc(N4CC(C(=O)O)C4)c3)c(-c3ccsc3C#N)c3cc(F)ccc32)cc1 [3/33] | 1000 to 10000 nM | < 100 nM | 100 to 1000 nM
N#Cc1sccc1-c1c(-c2cccc(N3CC(C(=O)O)C3)c2)n(S(=O)(=O)c2ccc(C(F)(F)F)cc2)c2ccc(F)cc12 [3/34] | 100 to 1000 nM | < 100 nM | 100 to 1000 nM
N#Cc1sccc1-c1c(-c2cccc(N3CC(C(=O)O)C3)c2)n(S(=O)(=O)c2ccc(C(F)F)cc2)c2ccc(F)cc12 [3/35] | 100 to 1000 nM | < 100 nM | 100 to 1000 nM
CC1CCN(S(=O)(=O)n2c(-c3cccc(N4CC(C(=O)O)C4)c3)c(-c3ccsc3C#N)c3cc(F)ccc32)CC1 [3/36] | 1000 to 10000 nM | 100 to 1000 nM | 100 to 1000 nM
Cc1ccc(S(=O)(=O)n2c(-c3cccc(N4CC(C)(C(=O)O)C4)c3)c(-c3ccsc3C#N)c3cc(F)ccc32)cc1 [3/37] | 100 to 1000 nM | < 100 nM | < 100 nM
Cc1ccc(S(=O)(=O)n2c(-c3cccc(N4CCC(C(=O)O)CC4)c3)c(-c3ccsc3C#N)c3cc(F)ccc32)cc1 [3/38] | 100 to 1000 nM | < 100 nM | < 100 nM
Cc1ccc(S(=O)(=O)n2c(-c3cccc(C4CC(C(=O)O)C4)c3)c(-c3ccsc3C#N)c3cc(F)ccc32)cc1 (stereo not drawn) [3/39] | 100 to 1000 nM | < 100 nM | 100 to 1000 nM
Cc1ccc(S(=O)(=O)n2c(-c3cc(N4CC(C(=O)O)C4)ccc3Cl)c(-c3ccsc3C#N)c3cc(F)ccc32)cc1 [3/40] | 1000 to 10000 nM | < 100 nM | 100 to 1000 nM
Cc1ccc(S(=O)(=O)n2c(-c3cc(N4CC(C(=O)O)C4)ccc3F)c(-c3ccsc3C#N)c3cc(F)ccc32)cc1 [3/41] | 1000 to 10000 nM | < 100 nM | < 100 nM
